Measurements from patent publication US20170196175A1, “COMPOSITIONS FOR THE DELIVERY OF AGROCHEMICALS TO THE ROOTS OF A PLANT” (ADAMA MAKHTESHIM LTD., priority 2014, published 2017).

How the values were obtained:
Solanum Nigrum = assay: Weed development and mortality (Example 11); assay type: in vivo; settings: for Weed control, unit versus spray practice: damage of weed buds from 13 days to end of trial
Description: Weeds: 30 seeds of Solanum Nigrum per pot.
Analysis of weeds parameters: Fresh biomass, size and total area covered by weeds per pot.

[1] = Diffusion of Atrazine and Mesotrione from units submerged in free water; assay type: physicochemical; settings: over 5 days
Procedure: A unit (each from the table above) was placed within a 500 cc vial. 250 cc of DI water were added. The vial was cover with punched Parafilm and stored at room temperature. After 24 hours, the free water, which didn't absorbed by the polymer, were drained and stored in a cold room. DI water at the same volume was refilled into the vial. Repeated this stage after 72 and 120 hours.

[2] = soil application studied as part of registration process, 28 DAP; cited from earlier work
[3] = Azoxystrobin content in pepper leaves (Example 12); assay type: in vivo
Procedure: Planting/harvesting dates: (47 days). Following harvest, unit samples from all treatments were excavated gently and were quantified for roots penetration and total root length. A core from the middle of each sample was cut and analyzed for root content. Root count in both vertical and horizontal axes and total volume were used estimating the root total length within a single unit. Total leaves biomass of each plant was analyzed to Azoxystrobin content in qualified laboratory (Bactochem, Israel).
Azoxystrobin application through the soil was studied as part of its registration process. The concentration in pepper leaves was measured over time from application. Similar Azoxystrobin concentrations in leaves were found in both commercial and current trial (tenth of ppm). […] This significant difference may inform the potential of the unit for protecting the plant for longer periods compared to current application practice.

[4] = Example 12; cited from earlier work
maize = assay: Crop selectivity (Example 11); assay type: in vivo
Description: Soil: 10 liter pots (surface area of 0.045 m^2) filled with Rehovot Sand (High sand fraction, low OM, low EC, low CEC, and High pH).
Crops: 6 maize plants per pot following herbicide application (high demand to fertilizers with selectivity).
Analysis of crop development parameters: Height and fresh biomass.

## CCNc1nc(Cl)nc(NC(C)C)n1 [Atrazine]
Solanum Nigrum
  Weed control, unit versus spray practice: no difference between unit and spray practices
[1]
  Dose released from the new units to the surrounding free water: up to 10%

## CO/C=C(/C(=O)OC)c1ccccc1Oc1cc(Oc2ccccc2C#N)ncn1 [Azoxystrobin]
[2]
  Azoxystrobin residue in commercial leaves: no residue were found
[3]; 47 DAP
  Azoxystrobin concentration in unit leaves: effective concentrations were found
[3]; DAP 47
  Difference in Azoxystrobin concentration in leaves between fully fertilized and no fertilizer: 5 fold
[3]; pepper, unit and commercial trial
  Azoxystrobin concentration in leaves: tenth of ppm
[4]
  DT50: 100 to 150 days

## CS(=O)(=O)c1ccc(C(=O)C2C(=O)CCCC2=O)c([N+](=O)[O-])c1 [Mesotrione]
Solanum Nigrum
  Weed control, unit versus spray practice: significant advantages of unit over spray
Solanum Nigrum; in vivo
  Weed control, half application rate in unit versus full spray rate: more effective than full spray rate
maize; double and fourfold doses
  Crop selectivity (crop height, color, final fresh biomass): yellowish and slight shorter (fourfold only), yet no difference was found in fresh biomass
maize; standard dose
  Crop selectivity (crop height, color, final fresh biomass): selective
[1]
  Dose released from the new units to the surrounding free water: up to 25%
